# Earlier results, collected in paper PMC4198332 (Chembiochem : a European journal of chemical biology, 2014).
# Columns and labels:
# E. coli (ATCC 25922) = settings: included for comparison
# [1] = system: human red blood cells (hRBCs)
# [2] = system: Methicillin-resistant S. aureus (MRSA) (ATCC 33591); settings: included for comparison
# [3] = system: Methicillin-resistant S. epidermidis (MRSE) (RP62A); settings: included for comparison
# [4] = system: Vancomycin-resistant E. faecalis (ATCC 700802); settings: included for comparison
# [5] = system: P. aeruginosa (ATCC 27853); settings: included for comparison
substance,measurement,setting,value
Pexiganan,MIC E. coli (−),E. coli (ATCC 25922),8 µg/mL
same,Hemolysis HC50,[1],--/120 μg/mL
same,MIC MRSA (+),[2],16 µg/mL
same,MIC MRSE (+),[3],8 µg/mL
same,MIC E. faecalis (+),[4],32 µg/mL
same,MIC P. Aeruginosa (−),[5],16 µg/mL
